Tests used:
MMP9 = MMP9 (Homo sapiens, UniProt P14780); experiment: in vitro MMP inhibition assay (Eurofins Panlabs); assay type: biochemical
MMP2 = molecular target: T1, MMP2 (Homo sapiens, UniProt P08253); experiment: in vitro MMP inhibition assay (Eurofins Panlabs); assay type: biochemical
T1 sequence (P08253 110-660): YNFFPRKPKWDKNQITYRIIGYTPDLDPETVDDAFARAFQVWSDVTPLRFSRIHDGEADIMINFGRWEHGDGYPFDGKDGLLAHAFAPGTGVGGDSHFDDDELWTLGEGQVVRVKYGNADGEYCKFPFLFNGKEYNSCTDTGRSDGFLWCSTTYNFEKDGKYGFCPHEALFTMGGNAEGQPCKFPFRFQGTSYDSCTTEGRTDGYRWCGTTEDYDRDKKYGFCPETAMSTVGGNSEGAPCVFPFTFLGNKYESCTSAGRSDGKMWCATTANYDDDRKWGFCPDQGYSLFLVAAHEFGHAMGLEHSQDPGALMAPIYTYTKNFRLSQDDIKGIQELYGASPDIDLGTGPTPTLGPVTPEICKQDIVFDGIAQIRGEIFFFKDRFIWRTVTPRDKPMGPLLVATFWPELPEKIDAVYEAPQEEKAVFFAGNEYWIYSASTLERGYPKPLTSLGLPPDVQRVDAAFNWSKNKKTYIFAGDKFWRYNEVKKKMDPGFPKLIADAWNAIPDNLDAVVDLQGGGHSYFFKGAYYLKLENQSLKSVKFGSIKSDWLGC

Chain of MMP9 (P14780 107-707): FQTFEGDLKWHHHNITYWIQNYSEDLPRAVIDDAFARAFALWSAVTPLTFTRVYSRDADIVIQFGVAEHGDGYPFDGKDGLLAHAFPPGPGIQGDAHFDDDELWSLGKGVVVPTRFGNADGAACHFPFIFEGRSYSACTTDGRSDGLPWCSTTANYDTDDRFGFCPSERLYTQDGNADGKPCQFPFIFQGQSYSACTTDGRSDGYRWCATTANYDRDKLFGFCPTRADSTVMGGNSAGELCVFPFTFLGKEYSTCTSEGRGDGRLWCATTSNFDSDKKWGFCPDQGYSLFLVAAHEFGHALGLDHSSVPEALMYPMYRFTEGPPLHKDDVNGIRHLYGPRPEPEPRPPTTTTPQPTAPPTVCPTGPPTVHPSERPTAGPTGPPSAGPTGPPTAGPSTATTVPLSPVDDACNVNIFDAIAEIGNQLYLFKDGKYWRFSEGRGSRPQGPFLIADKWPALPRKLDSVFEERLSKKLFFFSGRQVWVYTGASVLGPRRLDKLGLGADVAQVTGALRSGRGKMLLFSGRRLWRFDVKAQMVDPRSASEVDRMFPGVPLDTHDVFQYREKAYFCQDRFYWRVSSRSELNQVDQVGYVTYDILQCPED

in vitro MMP inhibition assay (Eurofins Panlabs) (MMP9): completely inhibit
in vitro MMP inhibition assay (Eurofins Panlabs) (MMP2): completely inhibit
SMILES: CNC(=O)C(Cc1c[nH]c2ccc(F)cc12)NC(=O)C(CC(=O)NO)CC(C)C (mixture of isomers) [TGF-019]
